In patent US20250215012A1, “IKZF2 DEGRADERS AND USES THEREOF” (REGENTS OF THE UNIVERSITY OF MICHIGAN, priority 2022, published 2025):

Target: IKZF2 (Homo sapiens (Human), UniProt Q96SW2+Q9UKS7)
Experiment: IKZF2 HiBiT Assay (Jurkat-IKZF2-HiBiT cell line)
Assay type: cell-based
Conditions: Jurkat-IKZF2-HiBiT cells, 24 hours; for DC50: read-out: HiBit assay degradation analysis DC50; for Dmax: read-out: HiBit assay degradation analysis Dmax
Procedure, shortened: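 IKZF2 degradation was assessed as HiBiT luminescence in Jurkat-IKZF2-HiBiT cells, using lytic detection after 24 h of compound treatment at 37 °C, 5% CO2.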

Sequence of IKZF2 (Q9UKS7 whole entry): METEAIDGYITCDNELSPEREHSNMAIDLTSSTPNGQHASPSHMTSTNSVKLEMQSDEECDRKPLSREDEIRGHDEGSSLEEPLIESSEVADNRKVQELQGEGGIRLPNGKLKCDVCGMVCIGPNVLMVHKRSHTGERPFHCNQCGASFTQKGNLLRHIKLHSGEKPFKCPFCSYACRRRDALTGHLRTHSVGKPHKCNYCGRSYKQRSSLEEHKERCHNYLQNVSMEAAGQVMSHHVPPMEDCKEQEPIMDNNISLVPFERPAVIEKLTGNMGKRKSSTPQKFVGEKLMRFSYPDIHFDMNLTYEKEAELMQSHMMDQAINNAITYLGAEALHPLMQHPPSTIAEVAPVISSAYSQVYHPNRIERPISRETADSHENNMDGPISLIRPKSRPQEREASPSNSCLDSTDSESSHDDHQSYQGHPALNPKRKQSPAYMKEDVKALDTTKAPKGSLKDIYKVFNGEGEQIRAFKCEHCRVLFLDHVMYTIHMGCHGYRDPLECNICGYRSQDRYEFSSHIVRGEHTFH
Sequence of IKZF2 (Q96SW2 whole entry): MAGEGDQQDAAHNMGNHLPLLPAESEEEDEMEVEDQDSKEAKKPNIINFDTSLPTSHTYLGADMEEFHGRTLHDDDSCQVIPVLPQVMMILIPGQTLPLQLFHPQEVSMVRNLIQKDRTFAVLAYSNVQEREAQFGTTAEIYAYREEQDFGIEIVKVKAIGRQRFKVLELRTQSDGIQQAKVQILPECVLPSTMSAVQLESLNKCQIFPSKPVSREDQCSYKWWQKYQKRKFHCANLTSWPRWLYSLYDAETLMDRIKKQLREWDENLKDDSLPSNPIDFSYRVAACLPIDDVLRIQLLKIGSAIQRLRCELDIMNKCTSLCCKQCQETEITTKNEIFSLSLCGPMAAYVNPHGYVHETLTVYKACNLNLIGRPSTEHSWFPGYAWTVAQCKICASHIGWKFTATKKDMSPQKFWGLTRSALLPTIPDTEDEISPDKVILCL
Sequence of IKZF2 (Q16531 whole entry partner): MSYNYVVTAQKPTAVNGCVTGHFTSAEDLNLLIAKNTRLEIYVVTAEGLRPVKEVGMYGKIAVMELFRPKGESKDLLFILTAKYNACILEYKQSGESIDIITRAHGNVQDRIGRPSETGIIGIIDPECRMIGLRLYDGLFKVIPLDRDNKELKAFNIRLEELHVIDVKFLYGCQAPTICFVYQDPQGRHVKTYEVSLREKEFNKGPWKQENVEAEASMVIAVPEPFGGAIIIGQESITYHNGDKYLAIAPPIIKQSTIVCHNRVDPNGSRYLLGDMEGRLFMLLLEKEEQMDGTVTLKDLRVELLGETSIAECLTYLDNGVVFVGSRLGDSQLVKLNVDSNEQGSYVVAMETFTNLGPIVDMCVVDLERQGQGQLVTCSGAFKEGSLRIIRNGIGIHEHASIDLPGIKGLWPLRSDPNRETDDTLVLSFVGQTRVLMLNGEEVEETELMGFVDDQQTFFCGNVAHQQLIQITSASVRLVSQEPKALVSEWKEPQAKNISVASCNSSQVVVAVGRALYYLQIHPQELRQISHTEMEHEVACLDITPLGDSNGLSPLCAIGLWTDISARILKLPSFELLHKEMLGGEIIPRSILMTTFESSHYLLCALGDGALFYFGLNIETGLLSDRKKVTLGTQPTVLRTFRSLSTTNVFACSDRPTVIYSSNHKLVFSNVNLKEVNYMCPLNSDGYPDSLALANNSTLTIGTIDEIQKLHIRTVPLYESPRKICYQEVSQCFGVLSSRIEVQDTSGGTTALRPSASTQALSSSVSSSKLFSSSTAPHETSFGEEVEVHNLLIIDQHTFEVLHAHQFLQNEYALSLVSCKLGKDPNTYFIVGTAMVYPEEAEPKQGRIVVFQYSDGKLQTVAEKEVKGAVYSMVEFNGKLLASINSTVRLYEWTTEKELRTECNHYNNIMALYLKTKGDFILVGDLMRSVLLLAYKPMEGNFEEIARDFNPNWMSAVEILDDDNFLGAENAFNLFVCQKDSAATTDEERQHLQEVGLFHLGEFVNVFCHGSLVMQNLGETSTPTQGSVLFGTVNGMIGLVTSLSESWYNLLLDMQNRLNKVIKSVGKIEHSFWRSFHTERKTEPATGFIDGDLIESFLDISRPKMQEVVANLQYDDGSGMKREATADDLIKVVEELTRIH

Row | SMILES | DC50 [nM] | Dmax [%]
1 | N#Cc1cccc(CN2CCC3(CC2)COc2c3ccc3c2CN(C2CCC(=O)NC2=O)C3=O)c1 (stereo not shown) [Compound A219, 3-((7-(2,6-dioxopiperidin-3-yl)-6-oxo-7,8-dihydro-2H,6H-spiro[furo[2,3-e]isoindole-3,4′-piperidin]-1′-yl)methyl)benzonitrile] | 200 to 500 | 40 to 60
2 | O=C1CCC(N2Cc3c(ccc4c3OCC43CCN(Cc4ccc(S(=O)(=O)c5ccccc5)cc4)CC3)C2=O)C(=O)N1 (stereo not shown) [Compound A340, 3-(6-oxo-1′-(4-(phenylsulfonyl)benzyl)-6,8-dihydro-2H,7H-spiro[furo[2,3-e]isoindole-3,4′-piperidin]-7-yl)piperidine-2,6-dione] | > 500 | 40 to 60
3 | O=C1CCC(N2Cc3c(ccc4c3OCC43CCN(Cc4cnn(CC5COC5)c4)CC3)C2=O)C(=O)N1 (stereo not shown) [Compound A319, 3-(1′-((1-(oxetan-3-ylmethyl)-1H-pyrazol-4-yl)methyl)-6-oxo-6,8-dihydro-2H,7H-spiro[furo[2,3-e]isoindole-3,4′-piperidin]-7-yl)piperidine-2,6-dione] | > 500 | < 40
4 | O=C1CCC(N2Cc3c(ccc4c3OCC43CCN(Cc4nn(CC5CCCCC5)c5ccccc45)CC3)C2=O)C(=O)N1 (stereo not shown) [Compound A329, 3-(1′-((1-(cyclohexylmethyl)-1H-indazol-3-yl)methyl)-6-oxo-6,8-2H,7H-spiro[furo[2,3-e]isoindole-3,4′-piperidin]-7-yl)piperidine-2,6-dione] | 50 to 200 | 60 to 80
5 | Cc1ccc(C(=O)Nc2cccc(CN3CCC4(CC3)OCc3c4ccc4c3CN(C3CCC(=O)NC3=O)C4=O)c2)cc1 (stereo not shown) [Compound A263, N-(3-((7-(2,6-dioxopiperidin-3-yl)-6-oxo-1,6,7,8-tetrahydrospiro[furo[3,4-e]isoindole-3,4′-piperidin]-1′-yl)methyl)phenyl)-4-methylbenzamide] | < 50 | 60 to 80
6 | O=C1CCC(N2Cc3c(ccc4c3OCC43CCN(Cc4csc5ccccc45)CC3)C2=O)C(=O)N1 (stereo not shown) [Compound A185, 3-(1′-(benzo[b]thiophen-3-ylmethyl)-6-oxo-6,8-dihydro-2H,7H-spiro[furo[2,3-e]isoindole-3,4′-piperidin]-7-yl)piperidine-2,6-dione] | < 50 | 60 to 80
7 | O=C1CCC(N2Cc3c(ccc4c3OCC43CCN(Cc4cnn(-c5ccccc5)c4)CC3)C2=O)C(=O)N1 (stereo not shown) [Compound A221, 3-(6-oxo-1′-((1-phenyl-1H-pyrazol-4-yl)methyl)-6,8-dihydro-2H,7H-spiro[furo[2,3-e]isoindole-3,4′-piperidin]-7-yl)piperidine-2,6-dione] | > 500 | 40 to 60
8 | O=C1CCC(N2Cc3c(ccc4c3OCC43CCN(Cc4ccc5ncccc5c4)CC3)C2=O)C(=O)N1 (stereo not shown) [Compound A46, 3-(6-oxo-1′-(quinolin-6-ylmethyl)-6,8-dihydro-2H,7H-spiro[furo[2,3-e]isoindole-3,4′-piperidin]-7-yl)piperidine-2,6-dione] | 200 to 500 | 40 to 60
9 | O=C1CCC(N2Cc3c(ccc4c3OCC43CCN(Cc4ccc5ncsc5c4)CC3)C2=O)C(=O)N1 (stereo not shown) [Compound A62, 3-(1′-(benzo[d]thiazol-6-ylmethyl)-6-oxo-6,8-dihydro-2H,7H-spiro[furo[2,3-e]isoindole-3,4′-piperidin]-7-yl)piperidine-2,6-dione] | 200 to 500 | 40 to 60
10 | [2H]C([2H])([2H])n1cc(-c2cccc(CN3CCC4(CC3)COc3c4ccc4c3CN([C@H]3CCC(=O)NC3=O)C4=O)c2)cn1 [Compound A291, (S)-3-(1′-(3-(1-(methyl-d3)-1H-pyrazol-4-yl)benzyl)-6-oxo-6,8-dihydro-2H,7H-spiro[furo[2,3-e]isoindole-3,4′-piperidin]-7-yl)piperidine-2,6-dione] | < 50 | 60 to 80
11 | O=C1CCC(N2Cc3c(ccc4c3OCC43CCN(Cc4cccc5cccnc45)CC3)C2=O)C(=O)N1 (stereo not shown) [Compound A41, 3-(6-oxo-1′-(quinolin-8-ylmethyl)-6,8-dihydro-2H,7H-spiro[furo[2,3-e]isoindole-3,4′-piperidin]-7-yl)piperidine-2,6-dione] | 50 to 200 | 60 to 80
12 | CC(c1ccccc1)N1CCC2(CC1)COc1c2ccc2c1CN(C1CCC(=O)NC1=O)C2=O (stereo not shown) [Compound A318, 3-(6-oxo-1′-(1-phenylethyl)-6,8-dihydro-2H,7H-spiro[furo [2,3-e]isoindole-3,4′-piperidin]-7-yl)piperidine-2,6-dione] | < 50 | 60 to 80
13 | O=C1CCC(N2Cc3c(ccc4c3OCC43CCN(Cc4cnn(S(=O)(=O)c5ccccc5)c4)CC3)C2=O)C(=O)N1 (stereo not shown) [Compound A336, 3-(6-oxo-1′-((1-(phenylsulfonyl)-1H-pyrazol-4-yl)methyl)-6,8-dihydro-2H,7H-spiro[furo[2,3-e]isoindole-3,4′-piperidin]-7-yl)piperidine-2,6-dione] | > 500 | 40 to 60
14 | O=C1CCC(N2Cc3c(ccc4c3OCC43CCN(Cc4cnn(CC5CC5)c4)CC3)C2=O)C(=O)N1 (stereo not shown) [Compound A231, 3-(1′-((1-(cyclopropylmethyl)-1H-pyrazol-4-yl)methyl)-6-oxo-6,8-dihydro-2H,7H-spiro[furo[2,3-e]isoindole-3,4′-piperidin]-7-yl)piperidine-2,6-dione] | 200 to 500 | 60 to 80
15 | O=C1CC[C@H](N2Cc3c(ccc4c3OCC43CCN(Cc4cnn(S(=O)(=O)c5ccc(F)cc5)c4)CC3)C2=O)C(=O)N1 [Compound A354, (S)-3-(1′-((1-((4-fluorophenyl)sulfonyl)-1H-pyrazol-4-yl)methyl)-6-oxo-6,8-dihydro-2H,7H-spiro[furo[2,3-e]isoindole-3,4′-piperidin]-7-yl)piperidine-2,6-dione] | – | 40 to 60
16 | CC1(C)Cc2c(CN3CCC4(CC3)COc3c4ccc4c3CN(C3CCC(=O)NC3=O)C4=O)cccc2O1 (stereo not shown) [Compound A326, 3-(1′-((2,2-dimethyl-2,3-dihydrobenzofuran-4-yl)methyl)-6-oxo-6,8-dihydro-2H,7H-spiro[furo[2,3-e]isoindole-3,4′-piperidin]-7-yl)piperidine-2,6-dione] | > 500 | 40 to 60
17 | O=C1CCC(N2Cc3c(ccc4c3OCC43CCN(Cc4ccnc5[nH]ccc45)CC3)C2=O)C(=O)N1 (stereo not shown) [Compound A73, 3-(1′-((1H-pyrrolo[2,3-b]pyridin-4-yl)methyl)-6-oxo-6,8-dihydro-2H,7H-spiro[furo[2,3-e]isoindole-3,4′-piperidin]-7-yl)piperidine-2,6-dione] | > 500 | 40 to 60
18 | O=C1CC[C@H](N2Cc3c(ccc4c3OCC43CCN(Cc4cccc(-c5cnn(C[C@H]6CCO6)c5)c4)CC3)C2=O)C(=O)N1 [Compound A273, (S)-3-(1′-(3-(1-(((R)-oxetan-2-yl)methyl)-1H-pyrazol-4-yl)benzyl)-6-oxo-6,8-dihydro-2H,7H-spiro[furo[2,3-e]isoindole-3,4′-piperidin]-7-yl)piperidine-2,6-dione] | 50 to 200 | 60 to 80
19 | CCOc1cc(CN2CCC3(CC2)COc2c3ccc3c2CN(C2CCC(=O)NC2=O)C3=O)ccn1 (stereo not shown) [Compound A247, 3-(1′-((2-ethoxypyridin-4-yl)methyl)-6-oxo-6,8-dihydro-2H,7H-spiro[furo[2,3-e]isoindole-3,4′-piperidin]-7-yl)piperidine-2,6-dione] | > 500 | < 40
20 | COCCn1ncc2cc(CN3CCC4(CC3)COc3c4ccc4c3CN(C3CCC(=O)NC3=O)C4=O)ccc21 (stereo not shown) [Compound A342, 3-(1′-((1-(2-methoxyethyl)-1H-indazol-5-yl)methyl)-6-oxo-6,8-dihydro-2H,7H-spiro[furo[2,3-e]isoindole-3,4′-piperidin]-7-yl)piperidine-2,6-dione] | > 500 | < 40
21 | O=C1CCC(N2Cc3c(ccc4c3OCC43CCN(Cc4cccc(NC(=O)c5ccc(Cl)cc5)c4)CC3)C2=O)C(=O)N1 (stereo not shown) [Compound A178, 4-chloro-N-(3-((7-(2,6-dioxopiperidin-3-yl)-6-oxo-7,8-dihydro-2H,6H-spiro[furo[2,3-e]isoindole-3,4′-piperidin]-1′-yl)methyl)phenyl)benzamide] | < 50 | > 80
22 | Cn1c(=O)oc2ccc(CN3CCC4(CC3)COc3c4ccc4c3CN(C3CCC(=O)NC3=O)C4=O)cc21 (stereo not shown) [Compound A175, 3-(1′-((3-methyl-2-oxo-2,3-dihydrobenzo[d]oxazol-5-yl)methyl)-6-oxo-6,8-dihydro-2H,7H-spiro[furo[2,3-e]isoindole-3,4′-piperidin]-7-yl)piperidine-2,6-dione] | > 500 | < 40
23 | O=C1CCC(N2Cc3c(ccc4c3OCC43CCN(Cc4ccn(-c5ccc(Cl)cc5)n4)CC3)C2=O)C(=O)N1 (stereo not shown) [Compound A243, 3-(1′-((1-(4-chlorophenyl)-1H-pyrazol-3-yl)methyl)-6-oxo-6,8-dihydro-2H,7H-spiro[furo[2,3-e]isoindole-3,4′-piperidin]-7-yl)piperidine-2,6-dione] | 50 to 200 | 60 to 80
24 | O=C1CC[C@H](N2Cc3c(ccc4c3OCC43CCN(Cc4cnn(CC5(c6ccccc6)CC5)c4)CC3)C2=O)C(=O)N1 [Compound A348, (S)-3-(6-oxo-1′-((1-((1-phenylcyclopropyl)methyl)-1H-pyrazol-4-yl)methyl)-6,8-dihydro-2H,7H-spiro[furo[2,3-e]isoindole-3,4′-piperidin]-7-yl)piperidine-2,6-dione] | < 50 | 60 to 80
25 | O=C1CCC(N2Cc3c(ccc4c3OCC43CCN(Cc4cccc(CF)c4)CC3)C2=O)C(=O)N1 (stereo not shown) [Compound A93, 3-(1′-(3-(fluoromethyl)benzyl)-6-oxo-6,8-dihydro-2H,7H-spiro[furo[2,3-e]isoindole-3,4′-piperidin]-7-yl)piperidine-2,6-dione] | 50 to 200 | 60 to 80
